This data set can be described thus: Stability evaluation of drug-excipient blend (impurities initially and after storage). The class given is physicochemical. On the procedure:
According to the present invention stability of drug-excipient blend was evaluated based on percentage w/w of 2-((R)-3-(diisopropylamino)-1-phenylpropyl)-4-(hydroxymethyl)phenol impurity (H-FTFRC-01) and total impurities present in drug-excipient blend, initially and after storage for one month at 40° C. and 75% relative humidity.

Results on one compound are retold here after patent publication US20150182629A1, “STABLE COMPOSITIONS OF FESOTERODINE” (HETERO RESEARCH FOUNDATION, priority 2012, published 2015).

For `CC(C)C(=O)Oc1ccc(CO)cc1[C@H](CCN(C(C)C)C(C)C)c1ccccc1.O=C(O)/C=C/C(=O)O` [Fesoterodine fumarate, isobutyric acid 2-((R)-3-diisopropylammonium-1phenylpropyl)-4-(hydroxymethyl) phenyl ester hydrogen fumarate], the H-FTFRC-01 impurity by setting is: (40° C./75% RH, 1 month) 0.524 % w/w; (Initial) 0.284 % w/w. Besides, the “Total Impurities” value is 1.245 % w/w (40° C./75% RH, 1 month) and 0.800 % w/w (Initial).
